Test results published in patent US4389412A, “Substituted cyclopropanecarboxylic acid esters and pesticidal compositions containing the same as active ingredient” (priority 1979, dated 1983).

What was measured:
[1] = Fish toxicity test with guppies; type: in vivo, Lebistes reticulatus; conditions: guppy, water, guppies, 20° C., read-out: TLm (48 hrs.)
Outline: (§1)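 Ten female guppies, 3–4 months old, held at 20 °C in water containing surfactant and test compound added in acetone solution. TLm (median tolerance limit, ppm) determined.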

[2] = test system: guppies (Lebistes reticulatus); test: Fish toxicity test with guppies; type: in vivo; conditions: Table 1; 48 hrs.
Outline: as §1

carp (Cyprinus carpio L) = test: Fish toxicity test with carp; type: in vivo; conditions: 48 hrs., 21±1° C.; 2880 min
Outline: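 Compound in acetone with Tween-20 dispersed in 50 L aerated water at a set concentration; five carp (about 6 g, 6 cm) exposed at 21±1° C. Deaths checked after 48 h, and TLm (median tolerance limit, ppm) determined.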

[3] = Acute toxicity test in rat by the oral route; type: in vivo; conditions: in vivo, male rat, in olive oil, after 7 days
Excerpt: (§2) Acute toxicity test in rat by the oral route

rat = test: Acute toxicity test in rat by the oral route; type: in vivo; conditions: Table 1, rat, 10080 min
Excerpt: as §2

fish [4] = test: Fish toxicity safety factor (TLm divided by maximum concentration in cover water); parameters: species or system carp
Outline: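 Calculated index: carp TLm (ppm) divided by the maximum compound concentration expected in paddy cover water. That concentration assumes 100 l of solution at the pest LC50 applied per 10 ares onto 5 cm deep cover water, all of it entering the water.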

[5] = test system: killifish (Orizias latipes); test: Fish toxicity test with killifish; type: in vivo; conditions: Table 1; 48 hrs.
Outline: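 Test compound dispensed from acetone solution into water at set concentrations; ten aerated-water killifish (~0.25 g, ~2.5 cm) held at 25±1° C. Deaths scored after 48 hours; TLm (median tolerance limit, ppm) determined.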

pests = test: Pesticidal effectiveness, overall; conditions: in vivo
Excerpt: The pesticidal activity of the compounds according to this invention against green rice leafhoppers (Nephotettix cincticeps Uhler), rice stem borers (Chilo suppressalis Walker), tobacco cutworms (Prodenia litura […]) and houseflies (Musca domestica), as examples of the pests against which the same compounds are considered effective, the acute toxicity data on the same compounds as determined in rat by the oral route and the median tolerance limit (TLm) data on the same compounds as determined in killifish (Orizias latipes) and guppies (Lebistes reticulatus) are shown in Table 1 alongside the corresponding values for various control compounds. The pesticidal effects were determined by the procedures set forth in Test Examples 1 through 4, while the acute toxicity to rat was determined by the procedure set forth in Test Example 9 and the toxicity to fish was determined by the procedures set forth in Test Examples 6 and 7, all those Examples appearing hereinafter.

fish [6] = test: Toxicity to fish compared with other pyrethroids
Excerpt: This invention is the culmination of the above findings.

crop plants = test: Phytotoxicity test; type: in vivo; conditions: 2,000 ppm solution on leaves, after 10 days
Excerpt: A 2,000 ppm solution of each of the cis- and trans-isomers and a 50:50 mixture of cis- and trans-isomers of Compound (1) and of Compound (2), and a 50:50 mixture of the cis- and trans-isomers of Compound (B) and Compound (E) was applied to the leaves of the following crop plants.
After 10 days, the crop plants were examined for their phytotoxicities.

Row | SMILES | LC50 at 48 h [1] | Toxicity to fish TLm, guppy [2] | TLm, Carp (48 hrs.) (carp (Cyprinus carpio L)) | LD50 at 168 h [3] | Acute oral toxicity to rat LD50 (rat) | Fish toxicity safety factor (fish [4]; TLm / maximum concentration in cover water at LC50 application (100 l per 10 ares, 5 cm depth)) | Toxicity to fish TLm, killifish [5] | pesticidal effectiveness in words (pests) | toxicity to fish in words (fish [6]) | concentration which kills 50% of pests as fraction of concentration which kills 50% of fish (fish [4]) | phytotoxicity (crop plants)
1 | C#CC(OC(=O)C1C(C=C(Cl)Cl)C1(C)C)c1cccc(Oc2ccc(Cl)cc2)c1 (stereo not drawn) [Compound (2) cis-/trans- = 50:50, 3-(4-chlorophenoxy)-α-ethynylbenzyl 2,2-dimethyl-3-(2,2-dichlorovinyl)cyclopropanecarboxylate] | > 10 µg/mL | > 10 ppm | 2.8 ppm | > 3000 mg/kg | > 3000 mg/kg | 7.4 | > 10 ppm | – | – | – | –
2 | C#CC(OC(=O)[C@@H]1[C@@H](C=C(Cl)Cl)C1(C)C)c1cccc(Oc2ccc(Cl)cc2)c1 (relative stereo) [Compound (2) trans-] | – | – | – | – | – | – | – | outstanding in pesticidal activity against various pests | by far low in toxicity to fish | less than 1/28 | –
3 | CC1(C)C(C=C(Cl)Cl)C1C(=O)OCc1cccc(Oc2ccccc2)c1 (centres unmarked) [Compound (B), Permethrin] | < 0.5 µg/mL | < 0.5 ppm | – | 300 mg/kg | – | – | – | – | – | – | did not cause any injury to each one of the crop plants
